Laboratory results: the NIST ThermoML archive (doi:10.1016/j.jct.2011.12.024)

Test: refractive index (other wavelength) (dimensionless); xn = mol fraction of the nth substance listed
Details: 101.33 kPa, Liquid, Wavelength=632.8 nm, Standard Abbe refractometry

COC(=O)CCCCC(=O)OC [dimethyl 1,6-hexanedioate] + CCCCCCC
Details | refractive index
289.5 K, x1 = 1 | 1.4287
291.65 K, x1 = 1 | 1.4279
292.22 K, x1 = 0.1018 | 1.3909
292.85 K, x1 = 0.5999 | 1.412
293.07 K, x1 = 0.7009 | 1.4159
293.2 K, x1 = 0.8979 | 1.4236
293.27 K, x1 = 0.1018 | 1.3904
293.28 K, x1 = 0.8048 | 1.42
293.87 K, x1 = 0.5999 | 1.4115
294.11 K, x1 = 0.8979 | 1.4232
294.12 K, x1 = 0.7009 | 1.4155
294.22 K, x1 = 0.8048 | 1.4196
294.37 K, x1 = 0.1018 | 1.3898
294.86 K, x1 = 0.5999 | 1.4111
294.9 K, x1 = 1 | 1.4265
294.96 K, x1 = 0.2007 | 1.398
295.01 K, x1 = 0.8979 | 1.4228
295.12 K, x1 = 0.8048 | 1.4192
295.15 K, x1 = 0.7009 | 1.415
295.39 K, x1 = 0.1018 | 1.3893
295.61 K, x1 = 0.3992 | 1.402
295.8 K, x1 = 0.4976 | 1.4062
295.83 K, x1 = 0.5999 | 1.4107
295.94 K, x1 = 0.8979 | 1.4224
295.95 K, x1 = 0.2007 | 1.3975
296.09 K, x1 = 0.8048 | 1.4188
296.15 K, x1 = 0.7009 | 1.4146
296.45 K, x1 = 0.1018 | 1.3888
296.65 K, x1 = 0.3992 | 1.4016
296.81 K, x1 = 0.5999 | 1.4103
296.89 K, x1 = 0.8979 | 1.422
296.9 K, x1 = 0.4976 | 1.4056
296.91 K, x1 = 0.2007 | 1.3971
296.94 K, x1 = 1 | 1.4257
297.08 K, x1 = 0.8048 | 1.4184
297.23 K, x1 = 0.7009 | 1.4142
297.45 K, x1 = 0.1018 | 1.3883
297.64 K, x1 = 0.3992 | 1.4011
297.81 K, x1 = 0.8979 | 1.4216
297.87 K, x1 = 0.5999 | 1.4098
297.95 K, x1 = 0.4976 | 1.4052
298.02 K, x1 = 0.2007 | 1.3965
298.02 K, x1 = 0.8048 | 1.418
298.15 K, x1 = 0.7009 | 1.4138
298.66 K, x1 = 0.3992 | 1.4007
298.92 K, x1 = 0.4976 | 1.4048
299.11 K, x1 = 0.2007 | 1.396
299.7 K, x1 = 0.3992 | 1.4002
299.93 K, x1 = 0.4976 | 1.4043
300.15 K, x1 = 0.2007 | 1.3955
300.67 K, x1 = 0.3992 | 1.3997
300.93 K, x1 = 0.4976 | 1.4039
301.21 K, x1 = 0.2007 | 1.395
301.74 K, x1 = 0.3992 | 1.3992
301.98 K, x1 = 0.4976 | 1.4034
